Literature values as cited in patent US9982018B2, “Amatoxin derivatives” ([…] GMBH, priority 2013, dated 2018).

Columns and labels:
[1] = naturally occurring amatoxin lacking the γ-hydroxyl group
RNA polymerase II = RNA polymerase II (Homo sapiens, UniProt P24928); settings: read-out: KD of complex with RNA polymerase II

Substance	toxicity [1]	Kd (RNA polymerase II)
amanullin	considerably reduced toxicity	–
amanitin	–	3 nM
